Usually IC50 stands for the concentration that inhibits the measured activity by half. One may read the Ki as the equilibrium dissociation constant of an inhibitor or competing ligand from its target. A low value points to tighter binding.

The record followed here is US9987272B2, “Compound useful for the treatement of degenerative and inflammatory diseases” (GALAPAGOS NV, priority 2011, dated 2018).

Each structure is given as a SMILES string. Several values for one entry are separate records, joined by “and”; a condition that tells them apart may be missing. Identical values can stand only once.

Assay [1] addresses T1, Recombinant human JAK1 (catalytic domain, amino acids 866-1154) (Homo sapiens, UniProt P23458).
T1 construct: catalytic domain, amino acids 866-1154; purchased Invitrogen PV4774
Nature of the assay: JAK1 Ulight-JAK1 peptide assay. Format: biochemical. As to conditions: Ulight-JAK1(tyr1023) peptide, 7 μM ATP; individual determinations; read-out: IC50 against JAK1. On the procedure:
Recombinant human JAK1 (catalytic domain, amino acids 866-1154; catalog number PV4774) was purchased from Invitrogen. 1 ng of JAK1 was incubated with 20 nM Ulight-JAK1(tyr1023) peptide (Perkin Elmer catalog number TRF0121) in kinase reaction buffer (25 mM MOPS pH6.8, 0.01% Brij-35, 5 mM MgCl2, 2 mM DTT, 7 μM ATP) with or without 4 μL containing test compound or vehicle (DMSO, 1% final concentration), in a total volume of 20 μL, in a white 384 Opti plate (Perkin Elmer, catalog number 6007290). […] Readout is performed using the Envision with excitation at 320 nm and measuring emission at 615 nm (Perkin Elmer). Kinase activity was calculated by subtracting relative fluorescence units (RFU) obtained in the presence of a positive control inhibitor (10 μM staurosporine) from RFU obtained in the presence of vehicle. The ability of a test compound to inhibit this activity was determined as: Percentage inhibition=((RFU determined for sample with test compound present−RFU determined for sample with positive control inhibitor) divided by (RFU determined in the presence of vehicle−RFU determined for sample with positive control inhibitor))*100.
A dose dilution series was prepared for the compound enabling the testing of dose-response effects in the JAK1 assay and the calculation of the IC50 for the compound. […] The data are expressed as the average IC50 from the assays±standard error of the mean.

The target in assay [2] is T2, Recombinant human JAK2 (catalytic domain) (Homo sapiens, UniProt O60674).
T2 construct: Recombinant human JAK2 catalytic domain (amino acids 808-1132; catalog number PV4210); purchased Invitrogen PV4210
Nature of the assay: JAK2 Ulight-JAK1 peptide assay. Format: biochemical. As to conditions: Ulight-JAK1(tyr1023) peptide, 7.5 μM ATP; individual determinations; read-out: IC50 against JAK2. On the procedure:
Recombinant human JAK2 (catalytic domain, amino acids 866-1154; catalog number PV4210) was purchased from Invitrogen. 0.0125 mU of JAK2 was incubated with 25 nM Ulight-JAK1(tyr1023) peptide (Perkin Elmer catalog number TRF0121) in kinase reaction buffer (25 mM HEPES pH7.0, 0.01% Triton X-100, 7.5 mM MgCl2, 2 mM DTT, 7.5 μM ATP) with or without 4 μL containing test compound or vehicle (DMSO, 1% final concentration), in a total volume of 20 μL, in a white 384 Opti plate (Perkin Elmer, catalog number 6007290). […] Readout is performed using the Envision with excitation at 320 nm and measuring emission at 615 nm (Perkin Elmer). Kinase activity was calculated by subtracting relative fluorescence units (RFU) obtained in the presence of a positive control inhibitor (10 μM staurosporine) from RFU obtained in the presence of vehicle. The ability of a test compound to inhibit this activity was determined as: Percentage inhibition=((RFU determined for sample with test compound present−RFU determined for sample with positive control inhibitor) divided by (RFU determined in the presence of vehicle−RFU determined for sample with positive control inhibitor))*100. […]

Assay [3] concerns the target T3, Recombinant human JAK3 catalytic domain (Homo sapiens, UniProt P52333).
T3 construct: catalytic domain (amino acids 795-1124; catalog number 08-046); purchased Carna Biosciences 08-046
Nature of the assay: JAK3 inhibition assay. The format is biochemical. As to conditions: polyGT substrate, 1 μM ATP, 33P-gamma-ATP; individual determinations; read-out: IC50 against JAK3. On the procedure: Recombinant human JAK3 catalytic domain (amino acids 795-1124; catalog number 08-046) was purchased from Carna Biosciences. 0.5 ng JAK3 protein was incubated with 2.5 μg polyGT substrate (Sigma catalog number P0275) in kinase reaction buffer (25 mM Tris pH 7.5, 0.5 mM EGTA, 10 mM MgCl2, 2.5 mM DTT, 0.5 mM Na3VO4, 5 mM b-glycerolphosphate, 0.01% Triton X-100, 1 μM non-radioactive ATP, 0.25 μCi 33P-gamma-ATP (Perkin Elmer, catalog number NEG602K001MC) final concentrations) with or without 5 μL containing test compound or vehicle (DMSO, 1% final concentration), in a total volume of 25 μL, in a polypropylene 96-well plate (Greiner, V-bottom). After 45 min at 30° C., reactions were stopped by adding 25 μL/well of 150 mM phosphoric acid. […] 40 μL/well of Microscint-20 was added, the top of the plates was sealed and readout was performed using the Topcount (Perkin Elmer). Kinase activity was calculated by subtracting counts per min (cpm) obtained in the presence of a positive control inhibitor (10 μM staurosporine) from cpm obtained in the presence of vehicle. The ability of a test compound to inhibit this activity was determined as: Percentage inhibition=((cpm determined for sample with test compound present−cpm determined for sample with positive control inhibitor) divided by (cpm determined in the presence of vehicle−cpm determined for sample with positive control inhibitor))*100. […]

The target of assay [4] is T4, Recombinant human TYK2 catalytic domain (Homo sapiens, UniProt P29597).
T4 construct: catalytic domain (amino acids 871-1187; catalog number 08-147); purchased Carna Biosciences 08-147
T4 sequence (P29597 871-1187): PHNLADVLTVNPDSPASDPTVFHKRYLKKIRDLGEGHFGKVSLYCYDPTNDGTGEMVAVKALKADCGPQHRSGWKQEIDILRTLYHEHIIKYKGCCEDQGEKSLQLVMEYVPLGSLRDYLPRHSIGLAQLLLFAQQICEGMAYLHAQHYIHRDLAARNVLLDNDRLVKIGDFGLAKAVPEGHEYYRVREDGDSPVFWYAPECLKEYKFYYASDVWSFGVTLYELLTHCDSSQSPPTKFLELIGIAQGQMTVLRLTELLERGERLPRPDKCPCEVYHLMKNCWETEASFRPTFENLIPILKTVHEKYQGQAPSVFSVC
Nature of the assay: TYK2 inhibition assay. As to conditions: polyGT substrate, 0.1 μM ATP, 33P-gamma-ATP; individual determinations; read-out: IC50 against TYK2. The format is biochemical. On the procedure: Recombinant human TYK2 catalytic domain (amino acids 871-1187; catalog number 08-147) was purchased from Carna biosciences. 4 ng of TYK2 was incubated with 12.5 μg polyGT substrate (Sigma catalog number P0275) in kinase reaction buffer (25 mM Hepes pH 7.2, 50 mM NaCl, 0.5 mM EDTA, 1 mM DTT, 5 mM MnCl2, 10 mM MgCl2, 0.1% Brij-35, 0.1 μM non-radioactive ATP, 0.125 μCi ^33P-gamma-ATP (Perkin Elmer, catalog number NEG602K001MC) final concentrations) with or without 5 μL containing test compound or vehicle (DMSO, 1% final concentration), in a total volume of 25 μL, in a polypropylene 96-well plate (Greiner, V-bottom). After 90 min at 30° C., reactions were stopped by adding 25 μL/well of 150 mM phosphoric acid. […] 40 μL/well of Microscint-20 was added, the top of the plates was sealed and readout was performed using the Topcount (Perkin Elmer). Kinase activity was calculated by subtracting counts per min (cpm) obtained in the presence of a positive control inhibitor (10 μM staurosporine) from cpm obtained in the presence of vehicle. The ability of a test compound to inhibit this activity was determined as: Percentage inhibition=((cpm determined for sample with test compound present−cpm determined for sample with positive control inhibitor) divided by (cpm determined in the presence of vehicle−cpm determined for sample with positive control inhibitor))*100. […]

In the next assay the target is T5, TYK2 (Homo sapiens, UniProt P29597).
T5 construct: catalytic domain (amino acids 871-1187; catalog number 08-147); purchased Carna Biosciences 08-147
T5 sequence (P29597 871-1187): T4 sequence (P29597 871-1187)
Nature of the assay: TYK2 Ki determination assay. The format is biochemical. As to conditions: Lineweaver-Burk plot, polyGT substrate, varying ATP. On the procedure:
For the determination of Ki, different amounts of compound are mixed with the enzyme and the enzymatic reaction is followed as a function of ATP concentration. The Ki is determined by means of double reciprocal plotting of Km vs compound concentration (Lineweaver-Burk plot). TYK2 (Carna Biosciences, 08-147) was used at a final concentration of 160 ng/ml. The substrate was Poly(Glu,Tyr)sodium salt (4:1), MW 20 000-50 000 (Sigma, P0275) The reaction was performed in 25 mM Hepes pH 7.2, 50 mM NaCl, 0.5 mM EDTA, 1 mM DTT, 5 mM MnCl2, 10 mM MgCl2, 0.1% Brij-35 with varying concentrations of ATP and compound and stopped by addition of 150 mM phosphoric acid. Measurement of incorporated phosphate into the substrate polyGT was done by loading the samples on a filter plate (using a harvester, Perkin Elmer) and subsequent washing. Incorporated ^33P in polyGT is measured in a Topcount scintillation counter after addition of scintillation liquid to the filter plates (Perkin Elmer).

The next assay relates to JAK-STAT. Nature of the assay: JAK-STAT signalling assay. Format: cell-based. Particulars: HeLa cells, pSTAT1(2)-luciferase reporter, human OSM 33 ng/mL; read-out: IC50 against JAK-STAT. On the procedure: HeLa cells were maintained in Dulbecco's Modified Eagle's Medium (DMEM) containing 10% heat inactivated fetal calf serum, 100 U/mL penicillin and 100 μg/mL streptomycin. HeLa cells were used at 70% confluence for transfection. 20,000 cells in 87 μL cell culture medium were transiently transfected with 40 ng pSTAT1(2)-luciferase reporter (Panomics), 8 ng of LacZ reporter as internal control reporter and 52 ng of pBSK using 0.32 μL Jet-PEI (Polyplus) as transfection reagent per well in 96-well plate format. After overnight incubation at 37° C., 5% CO2, transfection medium was removed. 81 μL of DMEM+1.5% heat inactivated fetal calf serum was added. 9 μL compound at 10× concentration was added for 60 min and then 10 μL of human OSM (Peprotech) at 33 ng/mL final concentration. […]
40 μL of cell lysate was used to read β-galactosidase activity by adding 180 μL β-Gal solution (30 μl ONPG 4 mg/mL+150 μL β-Galactosidase buffer (0.06 M Na2HPO4, 0.04 M NaH2PO4, 1 mM MgCl2)) for 20 min. The reaction was stopped by addition of 50 μL Na2CO3 1 M. Absorbance was read at 405 nm.
Luciferase activity was measured using 40 μL cell lysate plus 40 μL of Steadylite® as described by the manufacturer (Perkin Elmer), on the Envision (Perkin Elmer). […]
Background: In a reporter assay the amount or activity of a reporter protein is the signal.

T2 sequence (O60674 808-1132): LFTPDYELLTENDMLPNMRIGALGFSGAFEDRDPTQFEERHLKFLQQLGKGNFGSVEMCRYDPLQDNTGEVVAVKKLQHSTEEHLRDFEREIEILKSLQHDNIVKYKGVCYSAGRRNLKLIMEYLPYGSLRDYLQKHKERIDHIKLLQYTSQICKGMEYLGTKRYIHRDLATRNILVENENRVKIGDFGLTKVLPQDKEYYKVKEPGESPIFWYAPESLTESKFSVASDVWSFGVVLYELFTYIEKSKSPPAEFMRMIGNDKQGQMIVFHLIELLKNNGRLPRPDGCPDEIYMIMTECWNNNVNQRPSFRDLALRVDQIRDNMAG
T3 sequence (P52333 795-1124): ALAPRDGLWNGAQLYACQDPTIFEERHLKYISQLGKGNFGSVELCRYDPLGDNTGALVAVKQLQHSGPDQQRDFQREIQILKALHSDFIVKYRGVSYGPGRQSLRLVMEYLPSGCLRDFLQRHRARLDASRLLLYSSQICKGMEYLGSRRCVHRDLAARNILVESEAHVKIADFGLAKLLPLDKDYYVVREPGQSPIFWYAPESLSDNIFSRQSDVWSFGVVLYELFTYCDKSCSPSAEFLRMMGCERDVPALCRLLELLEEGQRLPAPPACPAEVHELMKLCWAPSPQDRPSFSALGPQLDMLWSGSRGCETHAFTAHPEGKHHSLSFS
T1 sequence (P23458 866-1154): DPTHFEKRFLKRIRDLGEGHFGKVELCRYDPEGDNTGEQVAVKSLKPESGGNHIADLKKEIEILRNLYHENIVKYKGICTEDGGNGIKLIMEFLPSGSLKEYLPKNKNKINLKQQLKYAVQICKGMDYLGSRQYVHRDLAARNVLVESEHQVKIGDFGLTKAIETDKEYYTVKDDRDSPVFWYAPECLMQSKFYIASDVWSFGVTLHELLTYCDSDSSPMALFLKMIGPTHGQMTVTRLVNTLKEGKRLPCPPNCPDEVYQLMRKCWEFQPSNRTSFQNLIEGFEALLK

As for `CC(=O)Nc1cc2c(-c3ccc(CN4CCN(S(C)(=O)=O)CC4)c(F)c3)cccn2n1` [Compound 1], the IC50 in assay [1] is 8.18 nM and 11.5 nM and 7.71 nM and 35.2 nM and 7.85 nM; in assay [2], 17.3 nM and 11.3 nM and 9.57 nM and 26 nM and 18.2 nM; in assay [3], 271 nM and 299 nM and 213 nM and 428 nM; in assay [4], 167 nM and 135 nM and 119 nM and 157 nM; with JAK-STAT, 970 nM. This compound also showed a Ki at TYK2 of 110 nM.
